PMC9866218, “Characterization and Chemical Synthesis of Cm39 (α-KTx 4.8): A Scorpion Toxin That Inhibits Voltage-Gated K^+ Channel KV1.2 and Small- and Intermediate-Conductance Ca^2+-Activated K^+ Channels KCa2.2 and KCa3.1” (Toxins, 2023)
“Also recorded” adds a separate entry of the source.

Assays:
hKV1.3 = format: cell-based, human
Text: We, therefore, aimed at testing the pharmacological activity of sCm39 on a battery of various potassium and sodium ion channels. Among the tested channels were six members of human voltage-gated K^+ (hKV) channels from Shaker family, hKV1.1-hKV1.6 (Figure 3A–F) and three members of Ca^2+-activated potassium channel; hKCa2.2 (SK2, Figure 3I), the small-conductance Ca^2+-activated channel; hKCa3.1 (IKCa1, SK4. Figure 3J), the intermediate-conductance Ca^2+-activated channel expressed in T lymphocytes; and mKCa1.1 (BK, Slo1, MaxiK, Figure 3H), the large-conductance voltage- and Ca^2+-activated channel of mice. In addition, we also screened the effect of Cm39 on hKV11.1 (hERG1, Figure 3G), a voltage-gated cardiac K^+ channel, and two human voltage-gated sodium (hNaV) channels, hNaV1.4 (Figure 3K) and hNaV1.5 (Figure 3L), expressed in skeletal and cardiac muscles, respectively. These ion channels were heterologously expressed in the CHO or HEK cell lines except for KV1.3. Human peripheral T lymphocytes. They were stimulated with Phytohemagglutinin A (PHA) to increase the KV1.3 channel expression, and Ca^2+-free intracellular solution was used to avoid KCa3.1 channel activation. Appropriate depolarization protocols were used to record ionic currents in voltage-clamped cells (see Figure 3 insets and Material and Methods for details). Freshly dissolved sCm39 in extracellular solution was applied at 1 µM concentration on the cell using a custom-built micro-perfusion system at ~200 µL/min flow rate.
For the measurement of KV1.x, mKCa1.1 and NaV1.x currents the extracellular solution was composed of (in mM) 145 NaCl, 5 KCl, 2.5 CaCl2, 1 MgCl2, 10 HEPES and 5.5 glucose, pH 7.35. In the HK-150 and Na^+-free bath solution bath all Na^+ was substituted by K^+ or Choline-Cl, respectively, other ingredients remained unchanged. […]
Whole-cell currents were recorded in voltage-clamped cells following standard protocols by using a Multiclamp 700B amplifier connected to a computer with Axon Digidata1440 digitizer and for data acquisition, Clampex 10.7 software was used (Molecular Devices).

hKV1.2 = target: T1, hKV1.2 (Homo sapiens, UniProt P16389); assay: Conductance-voltage (G-V) relationship of KV1.2; format: cell-based
T1 construct: GFP (vector pCMV6-AC-GFP); host or cells: CHO cells, transient transfection
Experimental: Mostly, scorpion toxins inhibit the KV channels by physically occluding the pore region of the channel thereby preventing the flow of K^+ ions. […] To confirm the blocking mechanism of Cm39 we determined the conductance–voltage (G–V) relationship for KV1.2 in the absence and presence of the toxin. Whole-cell currents of KV1.2 expressing CHO cells were recorded by applying the 300 ms long depolarization pulses ranging from −70 to +80 in 10 mV steps from Vh of −120 mV. […] The conductance values were calculated for each voltage step, normalized to the maximum conductance and plotted as a function of membrane potential (Em) as shown in Figure 4E. […] The midpoint voltage (V50) of the G–V relationship in the control solution (−1.0 ± 4.8, n = 4) was statistically similar to the V50 value at equilibrium block with 65 nM sCm39 (1.6 ± 4.0, n = 4) as shown in Figure 4F.
Those plasmids which lack a fluorescent tag were co-transfected with a plasmid encoding GFP. Transfections were performed at a GFP:channel DNA molar ratio of 1:10 using the Lipofectamine 2000 kit (Invitrogen) according to the manufacturer’s protocol. GFP expressing cells were identified with the Nikon TE 2000U fluorescence microscope (Nikon, Tokyo, Japan) and used for current recordings (~60–70% success rate for co-transfection). Generally, currents were recorded 24 to 48 h post transfection.
For the measurement of KV1.x, mKCa1.1 and NaV1.x currents the extracellular solution was composed of (in mM) 145 NaCl, 5 KCl, 2.5 CaCl2, 1 MgCl2, 10 HEPES and 5.5 glucose, pH 7.35. In the HK-150 and Na^+-free bath solution bath all Na^+ was substituted by K^+ or Choline-Cl, respectively, other ingredients remained unchanged. In the various TEA^+-containing solutions, Na^+ was substituted by tetraethylammonium-Cl in equimolar concentration (Figure 3). The bath solution for KCa2.2 and KCa3.1 consisted of (in mM) 145 L-Aspartic Na^+ salt, 5 KCl, 2.5 CaCl2, 1 MgCl2, 5.5 glucose and 10 HEPES, pH 7.4 and for KV11.1 (in mM) 140 Choline-Cl, 5 KCl, 2 MgCl2, 2 CaCl2, 10 HEPES, 20 glucose and 0.1 CdCl2, pH 7.35. The osmolarity of bath solutions was ranging between 302 to 308 mOsm/L. A total of 0.1 mg/mL bovine serum albumin (BSA, Sigma-Aldrich, Budapest, Hungary) was added to all the bath solutions before the patch-clamp assay to avoid toxin adsorption to the plastic surfaces of the perfusion system. Internal or pipette solution for recording KV1.x and mKCa1.1 currents consisted of (in mM) 140 KF, 2 MgCl2, 1 CaCl2, 11 EGTA and 10 HEPES, pH 7.22. […]
Whole-cell currents were recorded in voltage-clamped cells following standard protocols by using a Multiclamp 700B amplifier connected to a computer with Axon Digidata1440 digitizer and for data acquisition, Clampex 10.7 software was used (Molecular Devices). […]

T1 sequence (P16389 whole entry): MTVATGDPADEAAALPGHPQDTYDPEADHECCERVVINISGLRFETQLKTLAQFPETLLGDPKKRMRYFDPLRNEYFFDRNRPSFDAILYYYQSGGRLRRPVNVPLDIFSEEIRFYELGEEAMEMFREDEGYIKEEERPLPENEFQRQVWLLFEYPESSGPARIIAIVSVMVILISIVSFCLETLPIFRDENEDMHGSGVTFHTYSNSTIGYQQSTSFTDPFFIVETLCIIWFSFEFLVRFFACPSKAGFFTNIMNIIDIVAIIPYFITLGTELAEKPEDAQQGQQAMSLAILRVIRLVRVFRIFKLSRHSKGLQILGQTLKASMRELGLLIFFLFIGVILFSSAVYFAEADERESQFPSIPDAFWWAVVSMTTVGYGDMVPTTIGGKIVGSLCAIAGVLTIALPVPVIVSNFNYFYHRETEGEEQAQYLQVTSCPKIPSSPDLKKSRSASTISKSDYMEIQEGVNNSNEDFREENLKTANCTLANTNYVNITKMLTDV

CC[C@H](C)[C@@H]1NC(=O)[C@H](C)NC(=O)[C@H](C)NC(=O)[C@H](CCCCN)NC(=O)[C@@H]2CSSC[C@@H](C(=O)N[C@@H](Cc3ccc(O)cc3)C(=O)N[C@@H](Cc3ccc(O)cc3)C(=O)O)NC(=O)[C@H](CCCCN)NC(=O)[C@@H]3CSSC[C@H](NC(=O)[C@H](CCC(=O)O)NC(=O)[C@H](CO)NC(=O)[C@H](CO)NC(=O)[C@H](CO)NC(=O)[C@H](CCCCN)NC(=O)[C@@H](NC(=O)[C@H](CCCCN)NC(=O)[C@H](Cc4c[nH]cn4)NC(=O)[C@H](CC(N)=O)NC(=O)[C@@H](NC(=O)[C@H](Cc4ccccc4)NC(=O)[C@@H](N)[C@@H](C)O)[C@@H](C)CC)CSSC[C@H](NC(=O)[C@H](CCCCN)NC(=O)CNC(=O)[C@H](CO)NC(=O)[C@H](C)NC(=O)[C@H](CCCNC(=N)N)NC(=O)CNC1=O)C(=O)N[C@@H]([C@@H](C)CC)C(=O)N[C@@H](CC(N)=O)C(=O)N[C@@H](CO)C(=O)N[C@@H]([C@@H](C)O)C(=O)N3)C(=O)N[C@@H](CC(C)C)C(=O)N1CCC[C@H]1C(=O)N[C@@H](C)C(=O)N2 [Cm39]
decrease in current (hKV1.3; 1 µM, PHA-activated human peripheral T lymphocytes, 3−5 min, n = 3−5): < 3%
inhibition (in words) (hKV1.3; 1 μM, human peripheral T lymphocytes): does not inhibit; also recorded: did not show any effect
effect on voltage dependence of steady-state activation (conductance–voltage relationship) (hKV1.2; 65 nM, CHO cells): not altered; also recorded: completely insensitive
effect on voltage dependence of steady-state activation (conductance–voltage relationship) (hKV1.2; 65 nM, CHO cells, listed as sCm9): did not affect the voltage dependence of steady-state activation
Mann–Whitney p, V50 with vs without toxin (hKV1.2; 65 nM, ns = not significant): 0.89
midpoint voltage V50 of the G–V relationship (hKV1.2; equilibrium block with 65 nM sCm39, n = 4, control solution −1.0 ± 4.8, n = 4, CHO cells, ± SEM): 1.6 ± 4.0
